# Laboratory results taken from US20220202753A1, “METHOD OF DELIVERY OF INTRAVENOUS BACLOFEN” (Allaysis, LLC, priority 2020, published 2022).
# What was measured:
# [1] = Study 2: dose escalation study of IV baclofen in healthy adult volunteers; type: in vivo, human; settings: for subjects with asymptomatic nystagmus: 10-minute infusion, of 12 subjects; for bioavailability: human, plasma
# Method: Study 2: Dose Escalation Study of IV Baclofen in Healthy Adult Volunteers
# Following completion of the first-in-human study, a dose escalation study of IV and oral baclofen in 36 healthy volunteers was carried out using a randomized crossover oral/IV dose design and incorporating the investigational baclofen IV injection. The objectives of the study were: 1) characterize the pharmacokinetics of clinically relevant doses of oral and intravenous baclofen, 2) determine the safety profile of oral and intravenous baclofen, and 3) estimate bioequivalence parameters (AUC and Cmax) for 10- and 60-minute (only 15 mg dose) infusions of baclofen.
# The general design of the study involved three cohorts of 12 subjects. Initially 3 subjects were randomized to receive the lowest dosing regimen. These subjects received a 7.5 mg IV infusion, followed by a washout period of 2 or more days, followed by a 10 mg oral dose. […] Twelve subjects completed Cohort 1 and received a […] IV and a 10 mg oral dose. The IV baclofen doses were based on a 75% bioavailability observed in the pilot study. In Cohort 2, 12 different subjects received 11.5 mg of IV and 15 mg of oral baclofen. In Cohort 3, another 12 subjects received 20 mg of oral and 15 mg of IV baclofen. Once all subjects had completed the 15 mg IV dose without complications, an additional dosing period was added to this Cohort in which 15 mg baclofen was infused over 60 in to 12 subjects. […] Blood samples were collected between 0-24 hours. A validated, liquid chromatography-mass spectroscopy assay was used to measure plasma baclofen concentrations.
# Pharmacokinetic analysis was performed with Phoenix (Centara), a pharmacokinetic data analysis package. Pharmacokinetic parameters, including the observed maximum concentration (Cmax), the observed time to maximum concentration (Tmax), area under the concentration-time curve (AUC), clearance (CL), and volume of distribution (Vd), were estimated using non-compartmental analysis. The absolute oral bioavailability was calculated by dividing the dose-normalized AUC after oral dosing by the dose-normalized AUC after intravenous dosing. For an exploratory study of bioequivalence, the 90% confidence intervals of the geometric mean AUC(0-t), AUC(0-∞) and Cmax oral/AV ratios were determined using the 60-minute infusion as the test dose and the oral […] dose as the reference.
# [2] = Population pharmacokinetic modeling and simulation of IV baclofen infusion duration; parameters: species or system human
# Method: Plasma concentrations from cohorts 2 and 3 from Study 2 described above were used to build a two-compartment model simultaneously describing the IV and PO routes of administration. Population PK models were developed using data from cohort 3 and cohorts 2 and 3 combined (see FIGS. 4 and 5). It is worth noting that the PK parameter estimates from both study populations were similar. Two PK models with fixed absorption rate constants (Ka) of 0.6 and 0.8 hr^−1 were used. These were determined from estimates from the population pharmacokinetic model and literature.
# To assess the effect of infusion duration on Cmax and AUC, simulations were performed using the population PK parameter estimates determined from the baclofen dose ranging study. Using the models described above, simulations (n=10) of 30 subjects were completed using a 20 mg oral dose and IV doses of 15 and 16 mg infused over 120, 150, 180, and 210 minutes. The simulated data were then analyzed using non-compartmental analysis and bioequivalence of the maximum concentration and area under the curve was assessed. FIGS. 10 and 11 summarize how many times of the 10 simulations that the infusion rate met bioequivalence when 16 and 15 mg doses were used, respectively.
# To assess the effect of infusion duration on Cmax, a population pharmacokinetic model was developed using the observed plasma concentrations of baclofen following oral dosing of 20 mg and IV dosing of 15 mg infused over 10 and 60 minutes. Plasma concentrations of baclofen were best described by a two-compartment model, displaying a very rapid tissue distribution phase indicative of highly perfused tissues such as the liver, lung and brain and a more prolonged elimination phase. […] Using the PK model, baclofen concentrations for a 20t mg oral dose, a 15 mg IV dose infused over 180 minutes, and 16 mg IV dose infusions administered over 180 and 240 min were simulated. This allowed a determination of the effect of infusion duration on baclofen Cmax.
# [3] = Study 1: two-way crossover study of oral and intravenous baclofen in healthy adult volunteers; type: in vivo, human
# Description: Study 1: Two-Way Crossover Study of Oral and Intravenous Baclofen in Healthy Adult Volunteers
# The objective of the study was to characterize baclofen pharmacokinetics following oral and IV administration following low doses in healthy adult volunteers and determine the safety profile of an IV baclofen formulation.
# This study was a randomized, open label, balanced, two-treatment, single dose, crossover design in normal, healthy adult human subjects under fasting conditions.
# Initially, three adult volunteers received a single 3 mg IV and a 5 mg oral baclofen dose on separate study days. On the first day of drug administration in the study, one subject was given baclofen intravenously, and two subjects were given baclofen orally. On the second day of drug administration in the study, those that received baclofen orally received the TV dose and the individual who received the IV dose received the oral dose. Clinical tolerance was assessed, and plasma concentrations of baclofen were measured from the first three subjects before additional subjects were entered into the study. Nine additional adult volunteers received single 5 mg IV and 10 mg oral baclofen doses on separate days. Randomization occurred in a 1:1 ratio, such that all subjects received IV and oral baclofen on separate study days, but not necessarily in the same order. A total of twelve (12) subjects completed the clinical phase of the study. Plasma samples of 12 subjects were analyzed. However, the data from nine (9) subjects who received 5 mg IV and 10 mg oral tablet were considered for pharmacokinetic analysis and the calculation of within-subject variability. The three subjects who received 3 mg IV/5 mg oral baclofen were excluded from the pharmacokinetic analysis because more than half of the plasma concentrations were below the limit of quantitation (BLQ). Therefore, meaningful estimation of AUC was not possible for these subjects.
# [4] = cited from earlier work
# [5] = 5 mg IV infused over 15 minutes vs 10 mg oral
smiles,measurement,setting,value
"NCC(CC(=O)O)c1ccc(Cl)cc1 (stereo not drawn) [baclofen, 4-amino-3-[4-chlorophenyl] butanoic acid]",subjects with asymptomatic nystagmus,[1]; 7.5 mg IV,2 subjects
same,subjects with asymptomatic nystagmus,[1]; 11.5 mg IV,6 subjects
same,subjects with asymptomatic nystagmus,[1]; 15 mg IV,6 subjects
same,subjects with mild transient ataxia,"[1]; 15 mg IV, 60-minute infusion",Two
same,subjects with nystagmus,"[1]; 15 mg IV, 60-minute infusion",two
same,bioequivalence of baclofen IV and oral baclofen by AUC0-t and AUC0-inf,[1]; 15 mg at 60-min infusion,not
same,subjects with mild transient ataxia,[1]; 20 mg oral,One
same,bioequivalence of IV infusions and oral baclofen by Cmax,[1]; 10- and 60-minute IV infusions,not bioequivalent
same,bioequivalence of baclofen IV and oral baclofen by AUC0-t and AUC0-inf,[1]; 10-min infusions at all dose levels,demonstrated
same,mean Cmax ratio of IV infusion to oral baclofen,"[1]; 10-minute IV infusion, CI 247-281%",263%
same,mean Cmax ratio of IV infusion to oral baclofen,"[1]; 60-minute IV infusion, CI 135-165%",149%
same,adverse effects,[1]; following both oral and IV doses,"Mild, self-limited"
same,bioavailability,"[1]; oral, all cohorts, read-out: estimated mean bioavailability",89%
same,bioavailability,"[1]; cohort 2 (11.5 mg IV, 15 mg oral), read-out: bioavailability estimate",85.8%
same,bioavailability,"[1]; cohort 3 (15 mg IV, 20 mg oral), read-out: bioavailability estimate",81.2%
same,subjects not awake (took 20 seconds to awaken),[1]; three and a half hours after a 10 mg oral dose,one
same,mean bioavailability,[2]; population PK model estimate,84%
same,population mean terminal t1/2 (β),[2]; two-compartment population PK model,approximately 4.2 hours
same,mean distribution t1/2,"[2]; two-compartment population PK model, 20 mg oral, 15 mg IV over 10 and 60 minutes",~18 min
same,AUC of IV dose compared with oral dose,[3]; [5],similar
same,Cmax of IV dose compared with oral dose,[3]; [5],higher
same,Tmax of IV dose compared with oral dose,[3]; [5],earlier
same,tolerability,[3]; 3 and 5 mg IV,well tolerated
same,bioavailability,"[3]; human, plasma, 10 mg oral vs 5 mg IV, n=9, fasting, read-out: estimated mean absolute bioavailability of oral baclofen",74%
same,solubility in chloroform,[4]; chloroform,insoluble
same,solubility in methanol,[4]; methanol,very slightly soluble
same,solubility in water,[4]; water,2090 µg/mL
